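Five compound concentrations were applied to cells in 96-well plates for 48 hours; endpoints were derived by simple linear interpolation of the resulting dose-response curve. GI50 = concentration required for 50% inhibition of growth.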 Activity calls are given as the source filed them. No stated cut-off is given here; in the data, active = GI50 up to about 1.1 µM and inactive = higher.
Legend:
Assay in all cases: NCI tumour cell line growth inhibition, 48 h
[1] = tested on: HCT-15
[2] = tested on: SN12C
[3] = tested on: RPMI-8226
[4] = tested on: SNB-75
[5] = tested on: SF-268
[6] = tested on: HOP-18
[7] = tested on: XF498
[8] = tested on: LXFL 529
[9] = tested on: HL-60
[10] = tested on: DMS-114
[11] = tested on: NCI-H23
[12] = tested on: SK-MEL-28
[13] = tested on: KM12
[14] = tested on: OVCAR-3
[15] = tested on: SK-OV-3
[16] = tested on: SF-295
[17] = tested on: TK-10
[18] = tested on: DMS-273
[19] = tested on: EKVX
[20] = tested on: CAKI-1
[21] = tested on: 786-0
[22] = tested on: UACC-62
[23] = tested on: MOLT-4
[24] = tested on: HOP-62
[25] = tested on: LOX IMVI
[26] = tested on: OVCAR-5
[27] = tested on: ACHN
[28] = tested on: IGROV-1
[29] = tested on: SK-MEL-5
[30] = tested on: KM-20L2
[31] = tested on: K562
[32] = tested on: OVCAR-4
[33] = tested on: NCI-H226
[34] = tested on: SW-620
[35] = tested on: SNB-19
[36] = tested on: NCI-H522
[37] = tested on: HT-29
[38] = tested on: SF-539
[39] = tested on: A498
[40] = tested on: A549
[41] = tested on: M19-MEL
[42] = tested on: RXF 393
[43] = tested on: U-251
[44] = tested on: OVCAR-8
[45] = tested on: HCC 2998
[46] = tested on: CCRF-CEM
[47] = tested on: UO-31
[48] = tested on: M14
[49] = tested on: UACC-257
[50] = tested on: SK-MEL-2
[51] = tested on: DLD-1
[52] = tested on: COLO 205
[53] = tested on: Malme-3M
[54] = tested on: NCI-H460
[55] = tested on: HCT-116
[56] = tested on: HOP-92
[57] = tested on: SNB-78

**Q.** What does the source list for `Cc1ccc(C)c(NC2=NC(=O)C(CC(=O)Nc3ccc(Cl)cc3Cl)S2)c1` (centres undefined)?
**A.** GI50 [1]: > 100 µM; GI50 [2]: > 100 µM (inactive); GI50 [3]: > 100 µM (inactive); GI50 [4]: 44.7 µM (inactive); GI50 [5]: 37.8 µM (inactive); GI50 [6]: > 100 µM (inactive); GI50 [7]: 32.7 µM (inactive); GI50 [8]: 58.7 µM (inactive); GI50 [9]: > 100 µM (inactive); GI50 [10]: 42.6 µM (inactive); GI50 [11]: 43.8 µM (inactive); GI50 [12]: 77.6 µM (inactive); GI50 [13]: 52.6 µM (inactive); GI50 [14]: 49.9 µM (inactive); GI50 [15]: > 100 µM (inactive); GI50 [16]: > 100 µM (inactive); GI50 [17]: > 100 µM (inactive); GI50 [18]: 98.6 µM (inactive); GI50 [19]: > 100 µM (inactive); GI50 [20]: > 100 µM (inactive); GI50 [21]: 51.8 µM (inactive); GI50 [22]: 28.9 µM (inactive); GI50 [23]: 54.8 µM (inactive); GI50 [24]: > 100 µM (inactive); GI50 [25]: > 100 µM (inactive); GI50 [26]: > 100 µM (inactive); GI50 [27]: > 100 µM (inactive); GI50 [28]: > 100 µM (inactive); GI50 [29]: > 100 µM (inactive); GI50 [30]: > 100 µM (inactive); GI50 [31]: 80.2 µM (inactive); GI50 [32]: 49.2 µM (inactive); GI50 [33]: 28.1 µM (inactive); GI50 [34]: > 100 µM (inactive); GI50 [35]: 48.5 µM (inactive); GI50 [36]: 24 µM (inactive); GI50 [37]: > 100 µM (inactive); GI50 [38]: 41.4 µM (inactive); GI50 [39]: 28.6 µM (inactive); GI50 [40]: > 100 µM (inactive); GI50 [41]: 59.4 µM (inactive); GI50 [42]: 31.2 µM (inactive); GI50 [43]: 36.1 µM (inactive); GI50 [44]: 66.1 µM (inactive); GI50 [45]: 46 µM (inactive); GI50 [46]: 41.4 µM (inactive); GI50 [47]: > 100 µM (inactive); GI50 [48]: > 100 µM (inactive); GI50 [49]: > 100 µM (inactive); GI50 [50]: 29.5 µM (inactive); GI50 [51]: > 100 µM (inactive); GI50 [52]: 88.7 µM (inactive); GI50 [53]: 70.5 µM (inactive); GI50 [54]: > 100 µM (inactive)

**Q.** With `CN(N=O)C(=O)N(N)CCCCC(NC(=O)OCc1ccccc1)C(=O)OCc1ccccc1` (centres undefined) as the compound, how does the GI50 [1] read?
**A.** 90.4 µM

**Q.** What about the GI50 [2] of the same compound?
**A.** 18.6 µM (inactive)

**Q.** What about the GI50 [3] of the same compound?
**A.** > 100 µM (inactive)

**Q.** What about the GI50 [4] of the same compound?
**A.** 20.6 µM (inactive)

**Q.** And the GI50 [55]?
**A.** 29.8 µM (inactive)

**Q.** And the GI50 [7]?
**A.** 8.41 µM (inactive)

**Q.** What about the GI50 [8] of the same compound?
**A.** 53.2 µM (inactive)

**Q.** What about the GI50 [9] of the same compound?
**A.** 5.25 µM (inactive)

**Q.** And the GI50 [10]?
**A.** 44 µM (inactive)

**Q.** What about the GI50 [11] of the same compound?
**A.** 14.6 µM (inactive)

**Q.** And the GI50 [12]?
**A.** > 100 µM (inactive)

**Q.** And the GI50 [13]?
**A.** 38.8 µM (inactive)

**Q.** What about the GI50 [14] of the same compound?
**A.** 23.1 µM (inactive)

**Q.** What about the GI50 [15] of the same compound?
**A.** > 100 µM (inactive)

**Q.** What about the GI50 [16] of the same compound?
**A.** 75.9 µM (inactive)

**Q.** What about the GI50 [17] of the same compound?
**A.** > 100 µM (inactive)

**Q.** What about the GI50 [18] of the same compound?
**A.** 32.2 µM (inactive)

**Q.** And the GI50 [19]?
**A.** > 100 µM (inactive)

**Q.** What about the GI50 [20] of the same compound?
**A.** 25.6 µM (inactive)

**Q.** What about the GI50 [21] of the same compound?
**A.** 18.5 µM (inactive)

**Q.** And the GI50 [22]?
**A.** 18.5 µM (inactive)

**Q.** And the GI50 [23]?
**A.** 18.9 µM (inactive)

**Q.** And the GI50 [24]?
**A.** 9.75 µM (inactive)

**Q.** And the GI50 [25]?
**A.** 17.9 µM (inactive)

**Q.** What about the GI50 [56] of the same compound?
**A.** 10.7 µM (inactive)

**Q.** And the GI50 [26]?
**A.** > 100 µM (inactive)

**Q.** What about the GI50 [27] of the same compound?
**A.** 19 µM (inactive)

**Q.** And the GI50 [28]?
**A.** 49.2 µM (inactive)

**Q.** And the GI50 [29]?
**A.** 44.7 µM (inactive)

**Q.** And the GI50 [30]?
**A.** > 100 µM (inactive)

**Q.** And the GI50 [31]?
**A.** 45.4 µM (inactive)

**Q.** And the GI50 [32]?
**A.** 33.7 µM (inactive)

**Q.** And the GI50 [33]?
**A.** 22.2 µM (inactive)

**Q.** And the GI50 [34]?
**A.** 65.9 µM (inactive)

**Q.** And the GI50 [35]?
**A.** > 100 µM (inactive)

**Q.** What about the GI50 [36] of the same compound?
**A.** 11.7 µM (inactive)

**Q.** What about the GI50 [37] of the same compound?
**A.** 79.6 µM (inactive)

**Q.** And the GI50 [38]?
**A.** 16 µM (inactive)

**Q.** And the GI50 [39]?
**A.** 69.7 µM (inactive)

**Q.** What about the GI50 [40] of the same compound?
**A.** 81.8 µM (inactive)

**Q.** What about the GI50 [41] of the same compound?
**A.** 36.1 µM (inactive)

**Q.** And the GI50 [57]?
**A.** 31.9 µM (inactive)

**Q.** And the GI50 [42]?
**A.** 12.9 µM (inactive)

**Q.** And the GI50 [43]?
**A.** 38.9 µM (inactive)

**Q.** And the GI50 [44]?
**A.** 33.7 µM (inactive)

**Q.** What about the GI50 [45] of the same compound?
**A.** 18.2 µM (inactive)

**Q.** And the GI50 [46]?
**A.** 14.3 µM (inactive)

**Q.** What about the GI50 [47] of the same compound?
**A.** 18.7 µM (inactive)

**Q.** What about the GI50 [48] of the same compound?
**A.** 23 µM (inactive)

**Q.** And the GI50 [49]?
**A.** 18.7 µM (inactive)

**Q.** And the GI50 [50]?
**A.** 91.6 µM (inactive)

**Q.** What about the GI50 [51] of the same compound?
**A.** 58.7 µM (inactive)

**Q.** And the GI50 [52]?
**A.** 18.5 µM (inactive)

**Q.** And the GI50 [53]?
**A.** 40.1 µM (inactive)

**Q.** What about the GI50 [54] of the same compound?
**A.** 32.5 µM (inactive)

Reference: ChEMBL document CHEMBL1201862, “PubChem BioAssay data set” (2004)
